Source: ChEMBL document CHEMBL4706616, “Design, synthesis, and evaluation of substituted 2-acylamide-1,3-benzo[d]zole analogues as agents against MDR- and XDR-MTB” (Eur J Med Chem, 2021)
Converted amounts (≈) assume the structure as drawn.

Legend:
[1] = system: Mycobacterium tuberculosis; assay: Antitubercular activity against isoniazid/rifampicin/streptomycin/capreomycin/ofloxacin extensively drug-resistant Mycobacterium tuberculosis FJ05195 clinical isolates assessed as bacterial growth inhibition by MABA; format: functional
[2] = system: Mycobacterium tuberculosis; assay: Antitubercular activity against isoniazid/rifampicin multidrug-resistant Mycobacterium tuberculosis FJ05120 clinical isolates assessed as bacterial growth inhibition by MABA; format: functional

Row | SMILES | MIC [1] [µM] | MIC [2] [µM]
1 | O=C(Nc1nc2ccccc2o1)c1ccc(Cl)s1 | 14.3 (≈ 4 µg/mL) | 14.3 (≈ 4 µg/mL)
2 | Cc1nnsc1C(=O)Nc1nc2cc(-c3cccnc3)ccc2o1 | 2.96 (≈ 0.999 µg/mL) | 1.48 (≈ 0.499 µg/mL)
3 | Cc1nnsc1C(=O)Nc1nc2c(-c3ccccn3)cccc2o1 | 47.4 (≈ 16 µg/mL) | 23.7 (≈ 8 µg/mL)
4 | Cc1nnsc1C(=O)Nc1nc2c(ccc3cccnc32)o1 | 25.7 (≈ 8 µg/mL) | 6.42 (≈ 2 µg/mL)
5 | Cc1nnsc1C(=O)Nc1nc2ccc(Cl)cc2o1 | 0.85 (≈ 0.251 µg/mL) | 0.42 (≈ 0.124 µg/mL)
6 | Cc1nnsc1C(=O)Nc1nc2cc(F)ccc2o1 | 1.8 (≈ 0.501 µg/mL) | 0.45 (≈ 0.125 µg/mL)
7 | Cc1nnsc1C(=O)Nc1nc2c(Oc3ncccn3)cccc2o1 | 2.82 (≈ 0.999 µg/mL) | 5.64 (≈ 2 µg/mL)
8 | Cc1nnsc1C(=O)Nc1nc2c(OCc3ccccn3)cccc2o1 | 5.44 (≈ 2 µg/mL) | 2.72 (≈ 0.999 µg/mL)
9 | Cc1nnsc1C(=O)Nc1nc2cc(Br)ccc2o1 | 1.47 (≈ 0.499 µg/mL) | 1.47 (≈ 0.499 µg/mL)
10 | COC(=O)c1ccc(-c2ccc3oc(NC(=O)c4snnc4C)nc3c2)cc1 | 0.63 (≈ 0.248 µg/mL) | 0.63 (≈ 0.248 µg/mL)
11 | O=C(Nc1nc2ccccc2o1)c1ccco1 | 35.1 (≈ 8 µg/mL) | 70.1 (≈ 16 µg/mL)
12 | Cc1nnsc1C(=O)Nc1nc2cc(C(C)(C)C)ccc2o1 | 0.4 (≈ 0.127 µg/mL) | 0.4 (≈ 0.127 µg/mL)
13 | Cc1nnsc1C(=O)Nc1nc2cc(-c3ccccn3)ccc2o1 | 0.37 (≈ 0.125 µg/mL) | 0.37 (≈ 0.125 µg/mL)
14 | Cc1nnsc1C(=O)Nc1nc2cc(-c3cnn(C)c3)ccc2o1 | 1.47 (≈ 0.5 µg/mL) | 0.73 (≈ 0.248 µg/mL)
15 | Cc1ccc2oc(NC(=O)c3snnc3C)nc2c1 | 7.29 (≈ 2 µg/mL) | 7.29 (≈ 2 µg/mL)
16 | COC(=O)c1ccc2oc(NC(=O)c3snnc3C)nc2c1 | 3.14 (≈ 1 µg/mL) | 1.57 (≈ 0.5 µg/mL)
17 | Cc1nnsc1C(=O)Nc1nc2cc(N3CCOCC3)ccc2o1 | 23.2 (≈ 8 µg/mL) | 23.2 (≈ 8 µg/mL)

Row | SMILES | MIC [1] [µM] | MIC [2] [µM]
18 | Cc1nnsc1C(=O)Nc1nc2ccccc2[nH]1 | 30.9 (≈ 8 µg/mL) | 30.9 (≈ 8 µg/mL)
19 | Cc1nnsc1C(=O)Nc1nc2c(ccc3ccccc32)o1 | 103 (≈ 32 µg/mL) | 103 (≈ 32 µg/mL)
20 | Cc1nnsc1C(=O)Nc1nc2cc(Cl)ccc2o1 | 1.7 (≈ 0.501 µg/mL) | 1.7 (≈ 0.501 µg/mL)
21 | Cc1nnsc1C(=O)Nc1nc2c(Br)cccc2o1 | 0.74 (≈ 0.251 µg/mL) | 0.74 (≈ 0.251 µg/mL)
22 | O=C(Nc1nc2ccccc2o1)c1cccs1 | 32.8 (≈ 8 µg/mL) | 32.8 (≈ 8 µg/mL)
23 | Cc1nnsc1C(=O)Nc1nc2ccccc2s1 | 57.9 (≈ 16 µg/mL) | 57.9 (≈ 16 µg/mL)
24 | Cc1nnsc1C(=O)Nc1nc2ccccc2o1 | 0.48 (≈ 0.125 µg/mL) | 0.48 (≈ 0.125 µg/mL)
25 | Cc1nnsc1C(=O)Nc1nc2cc(-c3ccncc3)ccc2o1 | 1.48 (≈ 0.499 µg/mL) | 0.74 (≈ 0.25 µg/mL)
26 | Cc1nnsc1C(=O)Nc1nc2ncccc2o1 | 7.66 (≈ 2 µg/mL) | 3.83 (≈ 1 µg/mL)
27 | Cc1nnsc1C(=O)Nc1nc2c(ccc3ncccc32)o1 | 25.7 (≈ 8 µg/mL) | 25.7 (≈ 8 µg/mL)
28 | Cc1nnsc1C(=O)Nc1nc2ccc(C(C)(C)C)cc2o1 | 6.32 (≈ 2 µg/mL) | 6.32 (≈ 2 µg/mL)
29 | O=C(Nc1nc2ccccc2o1)c1ccccc1 | 537 (≈ 128 µg/mL) | 537 (≈ 128 µg/mL)
30 | CC[C@@H](CO)NCCN[C@@H](CC)CO [ETHAMBUTOL] | 39.2 (≈ 8 µg/mL) | 4.89 (≈ 0.999 µg/mL)
31 | NNC(=O)c1ccncc1 [ISONIAZID] | 29.2 (≈ 4 µg/mL) | 7.29 (≈ 1 µg/mL)
32 | CO[C@H]1/C=C/O[C@@]2(C)Oc3c(C)c(O)c4c(O)c(c(/C=N/N5CCN(C)CC5)c(O)c4c3C2=O)NC(=O)/C(C)=C\C=C\[C@H](C)[C@H](O)[C@@H](C)[C@@H](O)[C@@H](C)[C@H](OC(C)=O)[C@@H]1C [RIFAMPIN] | > 311 | > 311
33 | CN[C@@H]1[C@H](O[C@H]2[C@H](O[C@H]3[C@H](O)[C@@H](O)[C@H](N=C(N)N)[C@@H](O)[C@@H]3N=C(N)N)O[C@@H](C)[C@]2(O)C=O)O[C@@H](CO)[C@H](O)[C@H]1O [STREPTOMYCIN] | 87.8 (≈ 51.1 µg/mL) | < 0.69
